PubChem BioAssay AID493211 (Johns Hopkins Ion Channel Center, 2011)
Activity calls are given as the source filed them.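 Rule for the calls: active = switches on the TRPC4 calcium channel at some tested dose and gives a concentration response curve; inactive = the rest.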

Molecular target: TRPC4 (mouse), transient receptor potential cation channel C4
Assay: TRPC4 channel activators, dose response, cell-based, HEK293 TRPC4/mu-opioid, Fluo-4 calcium flux (AID 493211)
Settings: HEK293 TRPC4/mu-opioid cells, Fluo-4 calcium fluorescence ratio; for fluorescence ratio, percent of baseline (100 = none): at 20 µM (top of the series)

O=[N+]([O-])c1ccc(N2CCN(c3ccccn3)CC2)c2ncccc12
fluorescence ratio, percent of baseline (100 = none): inactive

CN1CCN(c2ccc([N+](=O)[O-])c3cccnc23)CC1
EC50: 9.12 nM

COC(=O)C1CCCN(c2ccc([N+](=O)[O-])c3cccnc23)C1 (stereo not drawn)
fluorescence ratio, percent of baseline (100 = none): inactive

N#Cc1ccccc1C1CCN(c2ccc([N+](=O)[O-])c3cccnc23)CC1
fluorescence ratio, percent of baseline (100 = none): inactive

CC(C)(C)OC(=O)N1CCN(c2ccc([N+](=O)[O-])c3cccnc23)CC1
fluorescence ratio, percent of baseline (100 = none): inactive

O=C1CC(Nc2ccc([N+](=O)[O-])c3cccnc23)CN1 (stereo not drawn)
fluorescence ratio, percent of baseline (100 = none): inactive

N#Cc1ccccc1N1CCN(c2ccc([N+](=O)[O-])c3cccnc23)CC1
fluorescence ratio, percent of baseline (100 = none): inactive

COc1ccc(N2CCN(c3ccc([N+](=O)[O-])c4cccnc34)CC2)cc1
fluorescence ratio, percent of baseline (100 = none): inactive

C[C@H]1CCCN1c1ccc([N+](=O)[O-])c2cccnc12
fluorescence ratio, percent of baseline (100 = none): inactive

O=[N+]([O-])c1ccc(N2CCN(c3ncccn3)CC2)c2ncccc12
fluorescence ratio, percent of baseline (100 = none): inactive

O=[N+]([O-])c1ccc(N2CCC3(CCc4ccccc43)CC2)c2ncccc12
fluorescence ratio, percent of baseline (100 = none): inactive

O=[N+]([O-])c1ccc(N2CCN(c3ccncc3)CC2)c2ncccc12
fluorescence ratio, percent of baseline (100 = none): inactive

O=[N+]([O-])c1ccc(N2CCOCC2)c2ncccc12
fluorescence ratio, percent of baseline (100 = none): inactive

CCOC(=O)NC1CCN(c2ccc([N+](=O)[O-])c3cccnc23)CC1
fluorescence ratio, percent of baseline (100 = none): inactive

C[C@@H]1CN(c2ccc([N+](=O)[O-])c3cccnc23)[C@@H](C)CN1
fluorescence ratio, percent of baseline (100 = none): inactive

O=[N+]([O-])c1ccc(N2CCC2)c2ncccc12
fluorescence ratio, percent of baseline (100 = none): inactive

O=[N+]([O-])c1ccc(N2CCC3(C=Cc4ccccc43)CC2)c2ncccc12
fluorescence ratio, percent of baseline (100 = none): inactive

O=[N+]([O-])c1ccc(N2CCN(c3ccc(F)cc3F)CC2)c2ncccc12
fluorescence ratio, percent of baseline (100 = none): inactive

O=[N+]([O-])c1ccc(N2CCOc3ccccc32)c2ncccc12
fluorescence ratio, percent of baseline (100 = none): inactive

CCN(CC)c1ccc([N+](=O)[O-])c2cccnc12
fluorescence ratio, percent of baseline (100 = none): inactive

COc1ccccc1N1CCN(c2ccc([N+](=O)[O-])c3cccnc23)CC1
fluorescence ratio, percent of baseline (100 = none): inactive

CC1CC(C)CN(c2ccc([N+](=O)[O-])c3cccnc23)C1 (stereo not drawn)
fluorescence ratio, percent of baseline (100 = none): inactive

O=C1NCCC1Nc1ccc([N+](=O)[O-])c2cccnc12 (stereo not drawn)
fluorescence ratio, percent of baseline (100 = none): inactive
